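Dose response: 5 concentrations. Exposure: 48 h. Format: 96-well plates. Endpoint: linear interpolation; highest concentration if not reached. At the GI50, growth is halved.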 Active and inactive are the calls of the source. No stated cut-off is given here; in the data, active = GI50 up to about 1.1 µM and inactive = higher.
Columns and labels:
Test in all cases: NCI tumour cell line growth inhibition, 48 h
786-0 = system: 786-0
A549 = system: A549
BT-549 = system: BT-549
CCRF-CEM = system: CCRF-CEM
COLO 205 = system: COLO 205
DU-145 = system: DU-145
HCC 2998 = system: HCC 2998
HCT-116 = system: HCT-116
HCT-15 = system: HCT-15
HL-60 = system: HL-60
HOP-62 = system: HOP-62
HOP-92 = system: HOP-92
HT-29 = system: HT-29
IGROV-1 = system: IGROV-1
K562 = system: K562
KM12 = system: KM12
LOX IMVI = system: LOX IMVI
M14 = system: M14
MCF7 = system: MCF7
MDA-MB-231 = system: MDA-MB-231
MDA-MB-435 = system: MDA-MB-435
MDA-N = system: MDA-N
MOLT-4 = system: MOLT-4
NCI-H23 = system: NCI-H23
NCI-H460 = system: NCI-H460
NCI-H522 = system: NCI-H522
NCI/ADR-RES = system: NCI/ADR-RES
OVCAR-3 = system: OVCAR-3
OVCAR-4 = system: OVCAR-4
OVCAR-5 = system: OVCAR-5
OVCAR-8 = system: OVCAR-8
PC-3 = system: PC-3
RPMI-8226 = system: RPMI-8226
RXF 393 = system: RXF 393
SF-268 = system: SF-268
SF-295 = system: SF-295
SF-539 = system: SF-539
SK-MEL-28 = system: SK-MEL-28
SK-MEL-5 = system: SK-MEL-5
SK-OV-3 = system: SK-OV-3
SN12C = system: SN12C
SNB-19 = system: SNB-19
SR = system: SR
SW-620 = system: SW-620
T47D = system: T47D
TK-10 = system: TK-10
U-251 = system: U-251
UACC-257 = system: UACC-257
UACC-62 = system: UACC-62
UO-31 = system: UO-31
A498 = system: A498
ACHN = system: ACHN
CAKI-1 = system: CAKI-1
EKVX = system: EKVX
Malme-3M = system: Malme-3M
NCI-H226 = system: NCI-H226
SK-MEL-2 = system: SK-MEL-2
SNB-75 = system: SNB-75

Compound: COc1ccc(-c2nc(-c3cnccn3)n(COCCO)n2)cc1
- GI50 (786-0): > 100 µM (inactive)
- GI50 (A549): > 100 µM (inactive)
- GI50 (BT-549): > 100 µM (inactive)
- GI50 (CCRF-CEM): > 100 µM (inactive)
- GI50 (COLO 205): > 100 µM (inactive)
- GI50 (DU-145): > 100 µM (inactive)
- GI50 (HCC 2998): > 100 µM (inactive)
- GI50 (HCT-116): > 100 µM (inactive)
- GI50 (HCT-15): > 100 µM
- GI50 (HL-60): > 100 µM (inactive)
- GI50 (HOP-62): > 100 µM (inactive)
- GI50 (HOP-92): > 100 µM (inactive)
- GI50 (HT-29): > 100 µM (inactive)
- GI50 (IGROV-1): > 100 µM (inactive)
- GI50 (K562): > 100 µM (inactive)
- GI50 (KM12): > 100 µM (inactive)
- GI50 (LOX IMVI): > 100 µM (inactive)
- GI50 (M14): > 100 µM (inactive)
- GI50 (MCF7): > 100 µM (inactive)
- GI50 (MDA-MB-231): > 100 µM (inactive)
- GI50 (MDA-MB-435): > 100 µM (inactive)
- GI50 (MDA-N): > 100 µM (inactive)
- GI50 (MOLT-4): > 100 µM (inactive)
- GI50 (NCI-H23): > 100 µM (inactive)
- GI50 (NCI-H460): > 100 µM (inactive)
- GI50 (NCI-H522): > 100 µM (inactive)
- GI50 (NCI/ADR-RES): > 100 µM (inactive)
- GI50 (OVCAR-3): > 100 µM (inactive)
- GI50 (OVCAR-4): > 100 µM (inactive)
- GI50 (OVCAR-5): > 100 µM (inactive)
- GI50 (OVCAR-8): > 100 µM (inactive)
- GI50 (PC-3): > 100 µM (inactive)
- GI50 (RPMI-8226): > 100 µM (inactive)
- GI50 (RXF 393): > 100 µM (inactive)
- GI50 (SF-268): > 100 µM (inactive)
- GI50 (SF-295): > 100 µM (inactive)
- GI50 (SF-539): > 100 µM (inactive)
- GI50 (SK-MEL-28): > 100 µM (inactive)
- GI50 (SK-MEL-5): > 100 µM (inactive)
- GI50 (SK-OV-3): > 100 µM (inactive)
- GI50 (SN12C): > 100 µM (inactive)
- GI50 (SNB-19): > 100 µM (inactive)
- GI50 (SR): > 100 µM (inactive)
- GI50 (SW-620): > 100 µM (inactive)
- GI50 (T47D): > 100 µM (inactive)
- GI50 (TK-10): > 100 µM (inactive)
- GI50 (U-251): > 100 µM (inactive)
- GI50 (UACC-257): > 100 µM (inactive)
- GI50 (UACC-62): > 100 µM (inactive)
- GI50 (UO-31): > 100 µM (inactive)

Compound: CNC(=O)N(CCC#N)CCN(C(=O)NC)c1ccccc1
- GI50 (786-0): > 100 µM (inactive)
- GI50 (A498): > 100 µM (inactive)
- GI50 (A549): > 100 µM (inactive)
- GI50 (ACHN): > 100 µM (inactive)
- GI50 (BT-549): > 100 µM (inactive)
- GI50 (CAKI-1): > 100 µM (inactive)
- GI50 (CCRF-CEM): > 100 µM (inactive)
- GI50 (COLO 205): > 100 µM (inactive)
- GI50 (DU-145): > 100 µM (inactive)
- GI50 (EKVX): > 100 µM (inactive)
- GI50 (HCC 2998): > 100 µM (inactive)
- GI50 (HCT-116): > 100 µM (inactive)
- GI50 (HCT-15): > 100 µM
- GI50 (HOP-62): > 100 µM (inactive)
- GI50 (HOP-92): > 100 µM (inactive)
- GI50 (HT-29): > 100 µM (inactive)
- GI50 (IGROV-1): > 100 µM (inactive)
- GI50 (K562): > 100 µM (inactive)
- GI50 (KM12): > 100 µM (inactive)
- GI50 (LOX IMVI): > 100 µM (inactive)
- GI50 (M14): > 100 µM (inactive)
- GI50 (MCF7): > 100 µM (inactive)
- GI50 (MDA-MB-231): > 100 µM (inactive)
- GI50 (MDA-MB-435): > 100 µM (inactive)
- GI50 (MDA-N): > 100 µM (inactive)
- GI50 (MOLT-4): > 100 µM (inactive)
- GI50 (Malme-3M): > 73.8 µM (inactive)
- GI50 (NCI-H226): > 100 µM (inactive)
- GI50 (NCI-H23): > 100 µM (inactive)
- GI50 (NCI-H460): > 100 µM (inactive)
- GI50 (NCI-H522): > 100 µM (inactive)
- GI50 (NCI/ADR-RES): > 100 µM (inactive)
- GI50 (OVCAR-3): > 100 µM (inactive)
- GI50 (OVCAR-4): > 100 µM (inactive)
- GI50 (OVCAR-5): > 100 µM (inactive)
- GI50 (OVCAR-8): > 100 µM (inactive)
- GI50 (PC-3): > 100 µM (inactive)
- GI50 (RPMI-8226): > 100 µM (inactive)
- GI50 (RXF 393): > 100 µM (inactive)
- GI50 (SF-268): > 100 µM (inactive)
- GI50 (SF-295): > 100 µM (inactive)
- GI50 (SF-539): > 100 µM (inactive)
- GI50 (SK-MEL-28): > 100 µM (inactive)
- GI50 (SK-MEL-2): > 100 µM (inactive)
- GI50 (SK-MEL-5): > 100 µM (inactive)
- GI50 (SK-OV-3): > 100 µM (inactive)
- GI50 (SN12C): > 100 µM (inactive)
- GI50 (SNB-19): > 100 µM (inactive)
- GI50 (SNB-75): 65 µM (inactive)
- GI50 (SR): > 100 µM (inactive)
- GI50 (SW-620): > 100 µM (inactive)
- GI50 (T47D): > 100 µM (inactive)
- GI50 (TK-10): > 100 µM (inactive)
- GI50 (U-251): > 100 µM (inactive)
- GI50 (UACC-257): > 100 µM (inactive)
- GI50 (UACC-62): > 100 µM (inactive)
- GI50 (UO-31): > 100 µM (inactive)
